pIC50: −log10 of the molar value.
Assays:
PIK3CD (Human) = PIK3CD (Human) (UniProt O00329); assay: Enzyme Assay
PIK3CG (human) = PIK3CG (human) (UniProt P48736); assay: Enzyme Assay
PIK3CG (human), sequence (P48736 whole entry, looked up): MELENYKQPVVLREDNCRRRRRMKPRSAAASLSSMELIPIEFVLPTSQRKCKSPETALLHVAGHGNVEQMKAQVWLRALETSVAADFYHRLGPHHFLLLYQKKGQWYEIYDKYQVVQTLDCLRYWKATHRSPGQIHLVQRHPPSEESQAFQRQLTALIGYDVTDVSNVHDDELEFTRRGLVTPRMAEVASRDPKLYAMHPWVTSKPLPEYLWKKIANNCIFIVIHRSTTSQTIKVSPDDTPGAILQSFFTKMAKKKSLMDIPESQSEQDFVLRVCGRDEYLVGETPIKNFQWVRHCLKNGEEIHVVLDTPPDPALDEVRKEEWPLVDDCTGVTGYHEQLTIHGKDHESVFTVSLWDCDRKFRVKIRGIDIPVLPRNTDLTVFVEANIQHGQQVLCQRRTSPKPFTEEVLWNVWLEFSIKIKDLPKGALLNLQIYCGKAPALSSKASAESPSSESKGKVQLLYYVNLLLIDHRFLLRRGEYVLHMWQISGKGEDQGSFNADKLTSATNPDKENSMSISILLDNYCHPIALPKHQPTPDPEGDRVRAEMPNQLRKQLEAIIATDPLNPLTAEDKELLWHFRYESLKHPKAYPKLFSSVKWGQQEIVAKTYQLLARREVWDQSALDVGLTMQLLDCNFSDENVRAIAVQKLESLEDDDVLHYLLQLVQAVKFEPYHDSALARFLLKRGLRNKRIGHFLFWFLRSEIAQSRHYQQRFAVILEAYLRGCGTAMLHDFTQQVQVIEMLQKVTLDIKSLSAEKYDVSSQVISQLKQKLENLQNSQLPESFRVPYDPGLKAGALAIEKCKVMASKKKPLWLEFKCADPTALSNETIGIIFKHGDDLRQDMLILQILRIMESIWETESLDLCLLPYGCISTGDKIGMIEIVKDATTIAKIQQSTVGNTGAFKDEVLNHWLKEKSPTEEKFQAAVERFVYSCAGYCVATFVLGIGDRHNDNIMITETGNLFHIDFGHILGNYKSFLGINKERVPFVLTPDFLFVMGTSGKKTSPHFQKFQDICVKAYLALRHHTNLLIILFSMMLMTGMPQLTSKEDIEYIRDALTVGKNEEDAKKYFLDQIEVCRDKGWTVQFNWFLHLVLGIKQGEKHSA

PIK3CD (Human), sequence (O00329 whole entry, looked up): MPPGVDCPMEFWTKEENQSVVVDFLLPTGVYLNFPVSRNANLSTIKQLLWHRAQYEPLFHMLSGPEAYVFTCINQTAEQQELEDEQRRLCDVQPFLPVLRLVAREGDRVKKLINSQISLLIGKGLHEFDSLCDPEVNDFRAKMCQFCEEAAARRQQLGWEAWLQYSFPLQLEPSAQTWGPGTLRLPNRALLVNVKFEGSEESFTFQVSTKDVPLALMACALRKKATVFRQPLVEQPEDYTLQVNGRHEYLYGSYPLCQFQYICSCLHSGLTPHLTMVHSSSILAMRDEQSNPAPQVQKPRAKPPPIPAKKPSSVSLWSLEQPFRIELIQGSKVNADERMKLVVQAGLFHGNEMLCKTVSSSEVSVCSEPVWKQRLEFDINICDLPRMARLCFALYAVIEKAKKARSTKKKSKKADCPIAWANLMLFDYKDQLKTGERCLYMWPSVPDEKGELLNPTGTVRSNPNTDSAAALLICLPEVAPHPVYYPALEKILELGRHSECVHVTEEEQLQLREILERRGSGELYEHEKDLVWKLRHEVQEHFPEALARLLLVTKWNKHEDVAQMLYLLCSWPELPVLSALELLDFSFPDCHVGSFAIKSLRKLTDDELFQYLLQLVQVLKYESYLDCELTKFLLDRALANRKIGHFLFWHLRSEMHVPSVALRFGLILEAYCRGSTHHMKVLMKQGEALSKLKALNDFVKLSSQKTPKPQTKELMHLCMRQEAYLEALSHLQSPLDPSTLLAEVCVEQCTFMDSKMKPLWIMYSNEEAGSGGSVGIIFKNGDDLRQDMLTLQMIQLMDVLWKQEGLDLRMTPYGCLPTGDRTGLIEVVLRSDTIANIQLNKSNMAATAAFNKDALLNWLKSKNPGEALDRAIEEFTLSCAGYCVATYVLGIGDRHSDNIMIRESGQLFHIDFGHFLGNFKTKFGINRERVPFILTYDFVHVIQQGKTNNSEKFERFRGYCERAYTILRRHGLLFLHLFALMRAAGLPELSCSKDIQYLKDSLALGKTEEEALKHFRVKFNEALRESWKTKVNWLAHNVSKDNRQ

| Compound | pIC50 (PIK3CD (Human)) | pIC50 (PIK3CG (human)) |
| --- | --- | --- |
| CCC(Nc1nc(N)ncc1-c1cncc(S(=O)(=O)NC(C)(C)C)c1)c1nc2cccc(C)c2c(=O)n1-c1ccccc1 (configuration not stated) | > 7.70 | 7.00 to 7.70 |
| CCC(Nc1nc(N)ncc1-c1cncc(S(=O)(=O)N(C)C)c1)c1nc2cccc(F)c2c(=O)n1-c1ccccc1 (configuration not stated) | 7.00 to 7.70 | 7.00 to 7.70 |
| CCC(Nc1nc(N)nc(C)c1/C=C/C(=O)n1cccn1)c1nc2cccc(C)c2c(=O)n1-c1ccccc1 (configuration not stated) | 7.00 to 8.00 | – |
| CCC(Nc1nc(N)nc(C)c1/C=C/C(N)=O)c1nc2cccc(C)c2c(=O)n1-c1ccccc1 (configuration not stated) | > 8.00 | – |
| CCC(Nc1nc(N)nc(C)c1/C=C/C(=O)Nc1nccs1)c1nc2cccc(C)c2c(=O)n1-c1ccccc1 (configuration not stated) | > 8.00 | – |
| CCC(Nc1nc(N)ncc1-c1cncc(S(=O)(=O)Nc2ccccc2F)c1)c1nc2cccc(F)c2c(=O)n1-c1ccccc1 (configuration not stated) | > 7.70 | 7.00 to 7.70 |
| CCC(Nc1nc(N)ncc1-c1cncc(S(=O)(=O)Nc2ccccc2C)c1)c1nc2cccc(F)c2c(=O)n1-c1ccccc1 (configuration not stated) | > 7.70 | 6.00 to 7.00 |
| CCC(Nc1nc(N)ncc1-c1cncc(S(=O)(=O)N2CCCC2)c1)c1nc2cccc(F)c2c(=O)n1-c1ccccc1 (configuration not stated) | > 7.70 | > 7.70 |
| CCC(Nc1nc(N)nc(C)c1/C=C/C(=O)Nc1cccnc1)c1nc2cccc(C)c2c(=O)n1-c1ccccc1 (configuration not stated) | > 8.00 | – |
| CCC(Nc1nc(N)nc(C)c1/C=C/C(=O)N1CCOCC1)c1nc2cccc(C)c2c(=O)n1-c1ccccc1 (configuration not stated) | > 8.00 | – |
| CCC(Nc1nc(N)nc(C)c1/C=C/C(=O)NC(C)C)c1nc2cccc(C)c2c(=O)n1-c1ccccc1 (configuration not stated) | 7.00 to 8.00 | – |
| CCC(Nc1nc(N)nc(C)c1/C=C/C(=O)Nc1ccncc1)c1nc2cccc(C)c2c(=O)n1-c1ccccc1 (configuration not stated) | 7.00 to 8.00 | – |
| CCC(Nc1nc(N)nc(C)c1/C=C1\CC(=O)NC1=O)c1nc2cccc(C)c2c(=O)n1-c1ccccc1 (configuration not stated) | 7.00 to 8.00 | – |
| CCC(Nc1nc(N)ncc1-c1cncc(S(=O)(=O)C(C)C)c1)c1nc2cccc(F)c2c(=O)n1-c1ccccc1 (configuration not stated) | 7.00 to 7.70 | 6.00 to 7.00 |
| CCC(Nc1nc(N)ncc1-c1cncc(S(N)(=O)=O)c1)c1nc2cccc(F)c2c(=O)n1-c1ccccc1 (configuration not stated) | 7.00 to 7.70 | 7.00 to 7.70 |
| CCC(Nc1nc(N)nc(C)c1-c1cncc(S(N)(=O)=O)c1)c1nc2cccc(F)c2c(=O)n1-c1ccccc1 (configuration not stated) | 7.00 to 7.70 | 6.00 to 7.00 |
| CCC(Nc1nc(N)nc(C)c1/C=C/C(=O)NC)c1nc2cccc(C)c2c(=O)n1-c1ccccc1 (configuration not stated) | > 8.00 | – |
| CCC(Nc1nc(N)nc(C)c1/C=C/C(=O)N1CCNCC1)c1nc2cccc(C)c2c(=O)n1-c1ccccc1 (configuration not stated) | 7.00 to 8.00 | – |
| CCC(Nc1nc(N)ncc1-c1cncc(S(=O)(=O)Nc2ccc(F)c(Cl)c2)c1)c1nc2cccc(F)c2c(=O)n1-c1ccccc1 (configuration not stated) | > 7.70 | 7.00 to 7.70 |
| CCC(Nc1nc(N)nc(C)c1/C=C/C(=O)Nc1ccccn1)c1nc2cccc(C)c2c(=O)n1-c1ccccc1 (configuration not stated) | > 8.00 | – |
| CCNC(=O)/C=C/c1c(C)nc(N)nc1NC(CC)c1nc2cccc(C)c2c(=O)n1-c1ccccc1 (configuration not stated) | 7.00 to 8.00 | – |
| C=Cc1c(C)nc(N)nc1NC(CC)c1nc2cccc(C)c2c(=O)n1-c1ccccc1 (configuration not stated) | 7.00 to 8.00 | – |
| CCC(Nc1nc(N)nc(C)c1/C=C/C(=O)Nc1cccc(C)n1)c1nc2cccc(C)c2c(=O)n1-c1ccccc1 (configuration not stated) | > 8.00 | – |

— the Kinase Knowledgebase extract (Sharma et al. 2016)
